Assay results published in ChEMBL document CHEMBL1150384, “Design, synthesis, and evaluation of potential inhibitors of nitric oxide synthase” (Bioorg Med Chem, 2008).

Target: Nitric oxide synthase 1 (Homo sapiens, UniProt P29475)
Sequence (P29475 whole entry): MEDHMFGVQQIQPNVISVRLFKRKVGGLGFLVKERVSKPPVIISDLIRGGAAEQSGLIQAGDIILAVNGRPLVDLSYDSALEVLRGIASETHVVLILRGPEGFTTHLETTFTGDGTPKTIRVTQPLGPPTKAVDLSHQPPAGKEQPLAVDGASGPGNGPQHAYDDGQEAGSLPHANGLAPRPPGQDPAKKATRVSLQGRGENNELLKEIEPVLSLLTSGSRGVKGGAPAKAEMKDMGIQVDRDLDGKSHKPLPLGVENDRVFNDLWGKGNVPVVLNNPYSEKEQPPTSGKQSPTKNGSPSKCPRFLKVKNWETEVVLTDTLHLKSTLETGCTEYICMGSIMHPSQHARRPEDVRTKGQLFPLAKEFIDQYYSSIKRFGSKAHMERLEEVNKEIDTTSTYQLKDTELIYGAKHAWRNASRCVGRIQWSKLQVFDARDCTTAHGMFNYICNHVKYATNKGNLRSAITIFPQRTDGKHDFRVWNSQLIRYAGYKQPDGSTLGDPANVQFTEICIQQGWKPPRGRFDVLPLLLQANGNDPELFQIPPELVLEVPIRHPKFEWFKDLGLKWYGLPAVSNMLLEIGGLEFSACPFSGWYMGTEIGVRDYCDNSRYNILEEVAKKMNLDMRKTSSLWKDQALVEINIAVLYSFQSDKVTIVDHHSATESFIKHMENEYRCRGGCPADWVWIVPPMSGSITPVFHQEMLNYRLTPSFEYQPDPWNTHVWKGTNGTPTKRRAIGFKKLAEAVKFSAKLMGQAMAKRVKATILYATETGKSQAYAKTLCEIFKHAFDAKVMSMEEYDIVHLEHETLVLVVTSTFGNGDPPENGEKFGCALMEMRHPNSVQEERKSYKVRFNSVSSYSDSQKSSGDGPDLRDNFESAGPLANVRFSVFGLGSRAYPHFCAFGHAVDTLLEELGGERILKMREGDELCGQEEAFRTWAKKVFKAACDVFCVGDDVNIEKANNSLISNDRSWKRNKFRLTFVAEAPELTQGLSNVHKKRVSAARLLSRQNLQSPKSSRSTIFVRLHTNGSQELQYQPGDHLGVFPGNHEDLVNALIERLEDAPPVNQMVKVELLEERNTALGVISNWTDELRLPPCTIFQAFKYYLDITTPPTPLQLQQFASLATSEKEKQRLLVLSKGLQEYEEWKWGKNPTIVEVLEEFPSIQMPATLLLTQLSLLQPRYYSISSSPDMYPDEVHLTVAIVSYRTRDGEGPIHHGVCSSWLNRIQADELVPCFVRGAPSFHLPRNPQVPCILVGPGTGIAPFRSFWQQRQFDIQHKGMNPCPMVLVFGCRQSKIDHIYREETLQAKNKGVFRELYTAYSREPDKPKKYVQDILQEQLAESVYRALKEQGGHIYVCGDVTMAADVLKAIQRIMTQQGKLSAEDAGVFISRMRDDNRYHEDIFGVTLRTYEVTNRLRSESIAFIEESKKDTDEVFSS
Description: Inhibition of nNOS assessed as conversion of L-[3H]arginine to L-[3H]citrulline

| SMILES | Ki [µM] |
| --- | --- |
| CCCC/N=C(\N)n1cccn1 | 14 |
| CC(=N)Nc1cccc(CN2CCOCC2)c1 | 2.8 |
| Cc1csc(N)n1 | 10 |
| N[C@@H](CCc1cnc[nH]1)C(=O)O | 170 |
| N[C@@H](CCCCCCc1cnc[nH]1)C(=O)O | 150 |
| FC(F)(F)c1ccc(OCCCn2ccnc2)cc1 | 75 |
| Brc1ccc(OCCCCCCn2ccnc2)cc1 | 57 |
| Brc1cccc(OCCCCn2ccnc2)c1 | 60 |
| CC(C)C/N=C(\N)n1cccn1 | 45 |
| N=C(NN)Nc1ccccc1 | 4 |
| CCCCC/N=C(\N)n1cccn1 | 60 |
| N=C(NC1CC1)n1cccn1 | 50 |
| N=C(Nc1cccc(CN)c1)n1cccn1 | 2 |
| N=C(N)SCc1ccc(CSC(=N)N)cc1 | 0.1 |
| Brc1ccc(OCCn2ccnc2)cc1 | 125 |
| CCSC(=N)N [ETHYLISOTHIOUREA] | 0.029 |
| CC(C)=CCSC(=N)N | 2 |
| CC(C)SC(=N)N | 0.037 |
| CC(=N)Nc1cccc(CN=C(C)N)c1 | 0.37 |
| Nc1nccs1 [AMINOTHIAZOLE] | 12 |
| c1c[nH]cn1 [IMIDAZOLE] | 175 |
| N=C(N)SCCCc1ccccc1 | 14 |
| CC(=N)Nc1cccc(C(=N)N)c1 | 0.57 |
| N=C(NCCC[C@H](N)C(=O)N[C@@H]1CN[C@@H](C(N)=O)C1)N[N+](=O)[O-] | 1.1 |
| CC(=N)Nc1cccc(CN(C)C)c1 | 0.17 |
| N=C(N)NN [PIMAGEDINE] | 3.3 |
| CCCC(=N)NCCC[C@H](N)C(=O)O | 5.3 |

| SMILES | Ki [µM] |
| --- | --- |
| CC(=N)Nc1cccc(NC(C)=N)c1 | 1.5 |
| O=C(Cn1ccnc1)c1ccccc1[N+](=O)[O-] | 375 |
| N[C@@H](CCCCCc1cnc[nH]1)C(=O)O | 2 |
| N=C(N)SCCc1ccc(CCSC(=N)N)cc1 | 0.016 |
| N=C(N)n1cccn1 [PRAXADINE] | 0.4 |
| OC(Cn1ccnc1)c1ccc(-c2ccccc2)cc1 (centres undefined) | 125 |
| N[C@@H](CCCc1cnc[nH]1)C(=O)O | 2 |
| Cc1ccn(C(=N)N)n1 | 8 |
| N=C(N)SCc1ccccc1 [BENZYL CARBAMIMIDOTHIOATE] | 14 |
| Cc1nccn1CC(=O)c1ccc([N+](=O)[O-])cc1 | 74 |
| N[C@@H](CCCc1cncn1-c1ccccc1)C(=O)O | 80 |
| CCCSC(=N)N | 0.63 |
| CC(=N)Nc1cccc(CSC(=N)N)c1 | 0.36 |
| CC(=N)Nc1cccc(S(N)(=O)=O)c1 | 29 |
| FC(F)(F)c1ccc(OCCCCCCn2ccnc2)cc1 | 35 |
| NCCCC/N=C(\N)n1cccn1 | 6 |
| CCC/N=C(\N)n1cccn1 | 3 |
| Cc1cnc(N)s1 | 1.1 |
| CNC(=N)NN | 14 |
| c1ccc(-n2ccnc2)cc1 | 430 |
| C=CCC(=N)NCCC[C@H](N)C(=O)O | 0.1 |
| N=C(N)SCCc1ccccc1 | 0.8 |
| CC(=N)Nc1cccc(CCN)c1 | 1 |
| N=C(N)SCCN | 1.8 |
| N=C(NN)NO | 0.68 |
| FC(F)(F)c1ccc(OCCCCn2ccnc2)cc1 | 94 |
| CC(C)(C)SC(=N)N | 0.62 |

| SMILES | Ki [µM] |
| --- | --- |
| N[C@@H](CCCCc1cnc[nH]1)C(=O)O | 65 |
| N=C(NCC1CC1)n1cccn1 | 10 |
| O=C(Cn1ccnc1)c1ccc([N+](=O)[O-])cc1 | 105 |
| CC(=N)Nc1cccc(CNCc2cccc(C(C)=N)c2)c1 | 0.042 |
| c1ccc(-c2ccc(CCn3ccnc3)cc2)cc1 | 175 |
| Cc1nc(N)sc1C | 0.38 |
| CC(=N)Nc1cccc(CNO)c1 | 2.1 |
| CNCc1cccc(NC(C)=N)c1 | 0.056 |
| CC(=N)Nc1cccc(NN)c1 | 1.1 |
| N[C@@H](CCCCCc1cncn1-c1ccccc1)C(=O)O | 70 |
| CCNC(=N)NN | 1 |
| CCC(=N)NCCC[C@H](N)C(=O)O | 3 |
| Cc1cnn(C(=N)N)c1 | 12 |
| Cc1cc(C)n(C(=N)N)n1 | 350 |
| Brc1ccccc1OCCCCn1ccnc1 | 180 |
| NC(=O)[C@@H]1C[C@@H](NC(=O)[C@@H](N)CCC/N=C(\N)N[N+](=O)[O-])CN1 | 0.1 |
| N=C(N)SCCc1cccc(CCSC(=N)N)c1 | 0.25 |
| Brc1ccc(OCCCCn2ccnc2)cc1 | 32 |
| NC1=NCCS1 | 0.41 |
| FC(F)(F)c1ccc(OCCn2ccnc2)cc1 | 45 |
| N[C@@H](CCCCc1cncn1-c1ccccc1)C(=O)O | 100 |
| Nc1nc(CCc2ccccc2)cs1 | 0.89 |
| CC(=N)Nc1cccc(N)c1 | 14 |
| Brc1ccc(OCCCn2ccnc2)cc1 | 125 |
| N=C(N)SCCCc1cccc(CCCSC(=N)N)c1 | 4.8 |
